Source: patent US20060069132A1, “Azolecarboxamide herbicides” (priority 2004, published 2006)

Key:
velvetleaf = assay: Test B pre-/postemergence herbicide test; format: in vivo, Abutilon theophrasti; details: for Velvetleaf plant response rating: postemergence, visual rating, scale 0 (no effect) to 100 (complete control)
Procedure, shortened: (§1)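 Pre: seeds sown, then sprayed. Post: 1–4-leaf plants (2–18 cm) sprayed at the same time. Paddy: flooded, treated at 2-leaf stage. Formulation: non-phytotoxic solvent with surfactant. Greenhouse 13–15 days; visual 0–100 score relative to controls.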

morningglory = assay: Test B pre-/postemergence herbicide test; format: in vivo, Ipomoea coccinea; details: for Morningglory plant response rating: postemergence, visual rating, scale 0 (no effect) to 100 (complete control)
Procedure, shortened: (§2)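 Evaluation is visual, comparing treated with control plants on a scale where 0 means no effect and 100 means full control. Treatments were preemergence, or postemergence on seedlings 2–18 cm tall, and held 13–15 days in the greenhouse.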

wheat = assay: Test B postemergence herbicide test; format: in vivo, Triticum aestivum; set-up: key to Wheat plant response rating: 0 = no effect, 100 = complete control; details: postemergence, visual rating, scale 0 (no effect) to 100 (complete control)
Procedure, shortened: (§3)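 Each value is a visual 0–100 response rating taken against controls 13 to 15 days after treatment in the greenhouse. Plants received formulated chemical postemergence at the 1- to 4-leaf stage or, in flooded paddy, at the 2-leaf stage.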

large crabgrass = assay: Test B pre-/postemergence herbicide test; format: in vivo, Digitaria sanguinalis; details: for Crabgrass, Large plant response rating: postemergence, visual rating, scale 0 (no effect) to 100 (complete control)
Procedure, shortened: as §1

wild oat = assay: Test B postemergence herbicide test; format: in vivo, Avena fatua; details: postemergence, visual rating, scale 0 (no effect) to 100 (complete control)
Procedure, shortened: as §3

ducksalad [1] = assay: Test C flooded paddy test; format: in vivo, Heteranthera limosa
barnyardgrass [2] = assay: Test B pre-/postemergence herbicide test; format: in vivo, Echinochloa crus-galli; details: for Barnyardgrass plant response rating: postemergence, visual rating, scale 0 (no effect) to 100 (complete control)
Procedure, shortened: as §2

pigweed = assay: Test B pre-/postemergence herbicide test; format: in vivo, Amaranthus retroflexus; details: for Pigweed plant response rating: postemergence, visual rating, scale 0 (no effect) to 100 (complete control)
Procedure, shortened: as §1

corn = assay: Test B pre-/postemergence herbicide test; format: in vivo, Zea mays; details: for Corn plant response rating: postemergence, visual rating, scale 0 (no effect) to 100 (complete control)
Procedure, shortened: as §1

[3] = tested on: small flower umbrella sedge; assay: Test B flooded paddy test; format: in vivo, Cyperus difformis; details: 1000 g ai/ha, visual rating, scale 0 to 100 (0 no effect, 100 complete control), 13 to 15 days
Procedure, shortened: as §3

barnyardgrass [4] = assay: Test B flooded paddy test; format: in vivo, Echinochloa crus-galli; details: 1000 g ai/ha, visual rating, scale 0 to 100 (0 no effect, 100 complete control), 13 to 15 days
Procedure, shortened: as §3

blackgrass = assay: Test B postemergence herbicide test; format: in vivo, Alopecurus myosuroides; details: postemergence, visual rating, scale 0 (no effect) to 100 (complete control)
Procedure, shortened: as §3

Surinam grass = assay: Test B pre-/postemergence herbicide test; format: in vivo, Urochloa decumbens; details: for Surinam Grass plant response rating: postemergence, visual rating, scale 0 (no effect) to 100 (complete control)
Procedure, shortened: as §1

lambsquarters = assay: Test B pre-/postemergence herbicide test; format: in vivo, Chenopodium album; details: for Lambsquarters plant response rating: postemergence, visual rating, scale 0 (no effect) to 100 (complete control)
Procedure, shortened: as §1

[5] = tested on: smallflower umbrella sedge; assay: Test C flooded paddy test; format: in vivo, Cyperus difformis
rice [6] = assay: Test B pre-/postemergence herbicide test; format: in vivo, Oryza sativa; details: preemergence
Procedure, shortened: as §1

cocklebur = assay: Test B pre-/postemergence herbicide test; format: in vivo, Xanthium strumarium; details: for Cocklebur plant response rating: postemergence, visual rating, scale 0 (no effect) to 100 (complete control)
Procedure, shortened: as §2

ducksalad [7] = assay: Test B flooded paddy test; format: in vivo, Heteranthera limosa; details: 1000 g ai/ha, visual rating, scale 0 to 100 (0 no effect, 100 complete control), 13 to 15 days
Procedure, shortened: as §3

rice [8] = assay: Test C flooded paddy test; format: in vivo, Oryza sativa
Procedure, shortened: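 Plants were grown to the 1- to 4-leaf stage (2–18 cm) and then treated postemergence, or grown to the 2-leaf stage for the flooded paddy test. They were held in a greenhouse for 12 to 14 days and then scored by eye against controls, where 0 is no effect and 100 is complete control.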

barnyardgrass [9] = assay: Test C flooded paddy test; format: in vivo, Echinochloa crus-galli
Procedure, shortened: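 Ratings (0 = no effect, 100 = complete control) come from visual comparison with untreated plants after 12 to 14 days in the greenhouse. Treatment was postemergence at the 1- to 4-leaf stage (2–18 cm), or at the 2-leaf stage for the flooded paddy barnyardgrass.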

rice [10] = assay: Test B flooded paddy test; format: in vivo, Oryza sativa; details: 1000 g ai/ha, visual rating, scale 0 to 100 (0 no effect, 100 complete control), 13 to 15 days
Procedure, shortened: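 Plants grow to 1- to 4-leaf stage (2–18 cm) for postemergence spraying, or to 2-leaf stage for the paddy test. Formulated compound is applied. Greenhouse holding lasts 13–15 days. Response is scored visually relative to controls, 0 no effect to 100 complete control; a dash means no result.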

giant foxtail = assay: Test B pre-/postemergence herbicide test; format: in vivo, Setaria faberi; details: for Foxtail, Giant plant response rating: postemergence, visual rating, scale 0 (no effect) to 100 (complete control)
Procedure, shortened: as §1

[11] = 125 g ai/ha, 0 = no effect, 100 = complete control, preemergence
[12] = 500 g ai/ha, visual rating 0-100, 0 no effect, 100 complete control, preemergence
[13] = 62 g ai/ha, scale 0 to 100 (0 no effect, 100 complete control)
[14] = 125 g ai/ha, scale 0 to 100 (0 no effect, 100 complete control)
[15] = 250 g ai/ha, scale of 0 to 100, 0 is no effect, 100 is complete control
[16] = 500 g ai/ha, visual rating after 12 to 14 days, scale 0 to 100 (0 no effect, 100 complete control)

## CCc1nn(C(C)(C)C)cc1C(=O)Nc1cccc(C(C)=O)c1 [Compound 187]
velvetleaf; [11]
  Velvetleaf plant response rating (0 to 100 scale): 10
velvetleaf; [12]
  Plant response rating, Velvetleaf: 20
velvetleaf; 125 g ai/ha
  Velvetleaf plant response rating: 0
velvetleaf; 500 g ai/ha
  Velvetleaf plant response rating: 10
morningglory; [11]
  Morningglory plant response rating (0 to 100 scale): 20
morningglory; [12]
  Plant response rating, Morningglory: 30
morningglory; 125 g ai/ha
  Morningglory plant response rating: 20
morningglory; 500 g ai/ha
  Morningglory plant response rating: 20
wheat; 125 g ai/ha
  Wheat plant response rating: 0
wheat; 500 g ai/ha
  Wheat plant response rating: 0
Large crabgrass; [11]
  Crabgrass, Large plant response rating (0 to 100 scale): 70
Large crabgrass; [12]
  Plant response rating, Crabgrass, Large: 100
Large crabgrass; 125 g ai/ha
  Crabgrass, Large plant response rating: 10
Large crabgrass; 500 g ai/ha
  Crabgrass, Large plant response rating: 10
Wild oat; 125 g ai/ha
  Oat, Wild plant response rating: 10
Wild oat; 500 g ai/ha
  Oat, Wild plant response rating: 20
Ducksalad [1]; [13]
  Ducksalad plant response rating: 20
Ducksalad [1]; [14]
  Ducksalad plant response rating: 40
Ducksalad [1]; [15]
  Ducksalad plant response rating: 85
Ducksalad [1]; [16]
  Plant response rating, Ducksalad: 90
Barnyardgrass [2]; [11]
  Barnyardgrass plant response rating (0 to 100 scale): 70
Barnyardgrass [2]; [12]
  Plant response rating, Barnyardgrass: 90
Barnyardgrass [2]; 125 g ai/ha
  Barnyardgrass plant response rating: 10
Barnyardgrass [2]; 500 g ai/ha
  Barnyardgrass plant response rating: 10
pigweed; [11]
  Pigweed plant response rating (0 to 100 scale): 20
pigweed; [12]
  Plant response rating, Pigweed: 60
pigweed; 125 g ai/ha
  Pigweed plant response rating: 20
pigweed; 500 g ai/ha
  Pigweed plant response rating: 20
corn; [11]
  Corn plant response rating (0 to 100 scale): 20
corn; [12]
  Plant response rating, Corn: 60
corn; 125 g ai/ha
  Corn plant response rating: 0
corn; 500 g ai/ha
  Corn plant response rating: 20
[3]
  Sedge, Umbrella plant response rating: 80
Barnyardgrass [4]
  Barnyardgrass plant response rating: 60
blackgrass; 125 g ai/ha
  Blackgrass plant response rating: 0
blackgrass; 500 g ai/ha
  Blackgrass plant response rating: 0
Surinam grass; [11]
  Surinam Grass plant response rating (0 to 100 scale): 30
Surinam grass; [12]
  Plant response rating, Surinam Grass: 70
Surinam grass; 125 g ai/ha
  Surinam Grass plant response rating: 10
Surinam grass; 500 g ai/ha
  Surinam Grass plant response rating: 10
lambsquarters; [11]
  Lambsquarters plant response rating (0 to 100 scale): 20
lambsquarters; [12]
  Plant response rating, Lambsquarters: 40
lambsquarters; 125 g ai/ha
  Lambsquarters plant response rating: 0
lambsquarters; 500 g ai/ha
  Lambsquarters plant response rating: 0
[5]; [13]
  Sedge, Umbrella plant response rating: 20
[5]; [14]
  Sedge, Umbrella plant response rating: 65
[5]; [15]
  Sedge, Umbrella plant response rating: 80
[5]; [16]
  Plant response rating, Sedge, Umbrella: 85
Rice [6]; 125 g ai/ha, 0 = no effect, 100 = complete control
  Rice plant response rating (0 to 100 scale): 30
Rice [6]; 500 g ai/ha, visual rating 0-100, 0 no effect, 100 complete control
  Plant response rating, Rice: 80
cocklebur; [11]
  Cocklebur plant response rating (0 to 100 scale): 0
cocklebur; [12]
  Plant response rating, Cocklebur: 0
cocklebur; 125 g ai/ha
  Cocklebur plant response rating: 30
cocklebur; 500 g ai/ha
  Cocklebur plant response rating: 70
Ducksalad [7]
  Ducksalad plant response rating: 90
Rice [8]; [13]
  Rice plant response rating: 15
Rice [8]; [14]
  Rice plant response rating: 30
Rice [8]; [15]
  Rice plant response rating: 50
Rice [8]; [16]
  Plant response rating, Rice: 65
Barnyardgrass [9]; [13]
  Barnyardgrass plant response rating: 0
Barnyardgrass [9]; 125 g ai/ha, scale of 0 to 100, 0 is no effect, 100 is complete control
  Barnyardgrass plant response rating: 25
Barnyardgrass [9]; [15]
  Barnyardgrass plant response rating: 60
Barnyardgrass [9]; [16]
  Plant response rating, Barnyardgrass: 75
Rice [10]
  Rice plant response rating: 30
Giant foxtail; [11]
  Foxtail, Giant plant response rating (0 to 100 scale): 10
Giant foxtail; [12]
  Plant response rating, Foxtail, Giant: 70
Giant foxtail; 125 g ai/ha
  Foxtail, Giant plant response rating: 10
Giant foxtail; 500 g ai/ha
  Foxtail, Giant plant response rating: 10
